Measured values published in US20220135942A1, “CULTURED TISSUE AND METHOD FOR PRODUCING SAME” (NAGASAKI UNIVERSITY, priority 2019, published 2022).

How the values were obtained:
[1] = tested on: bile ducts formed from the rCLiPs cocultured with rat primary hepatocytes; test: CLF transfer to bile ducts in coculture of rCLiP bile ducts and rat primary hepatocytes; type: in vitro ADME; conditions: rat primary hepatocytes cocultured 3 days; observed 2, 24 and 72 hours after CLF addition; excitation 480 nm; FIG. 3A
Text: (§1) It can be confirmed by various methods using labeled compounds that the glandular cavities and the ducts are functionally connected in the cultured tissue produced by the above-mentioned method. For example, a compound obtaining by labeling a compound the behavior of which in the glandular cavities and the ducts is known and which are objects to be confirmed can be used. The functional connection between the glandular cavities and the ducts can be specifically confirmed by confirming whether the labeled secretion or the analogue thereof is incorporated into the glandular cells, and the labeled secretion or the analogue thereof secreted from the glandular cells can be detected from the ducts. […] When CLF is incorporated into the hepatocytes cocultured with the bile ducts, and the fluorescence of CLF is detected from the bile ducts, it can be confirmed that CLF is secreted from the hepatocytes to the biliary canaliculi, and the secreted CLF moves to the bile ducts, namely that the biliary canaliculi and the bile ducts are functionally connected. […]
One day after the inoculation of the primary hepatocytes, the medium was exchanged for the BIM-2 medium. […] The appearances of the cells 2 hours, 24 hours, and 72 hours after the addition of the CLF solution were observed through a phase-contrast microscope and a fluorescence microscope (FIG. 3A). […]

[2] = tested on: bile ducts formed from rCLiPs only; test: CLF added to rCLiP bile ducts only, without primary hepatocytes (negative control, Example 1); type: in vitro ADME, rat; conditions: no hepatocytes, 2 hours after CLF addition, FIG. 3B
Protocol: The appearance 2 hours after the addition of the CLF solution was observed through the phase-contrast microscope and the fluorescence microscope (FIG. 3B).

[3] = tested on: bile ducts formed from the rCLiPs cocultured with human hepatocytes; test: CLF transfer to bile ducts in coculture of rCLiP bile ducts and human hepatocytes; type: in vitro ADME; conditions: human hepatocytes cocultured 3 days; 30 min incubation in HBSS containing CLF; observed immediately, 4 and 24 hours after washing; excitation 470 nm; FIG. 6A
Text: as §1
One day after the inoculation of the human hepatocytes, the medium was exchanged for BIM-2 medium. […] After the incubation, the cells were washed with MSS not containing CLF, and the appearances of the cells immediately, 4 hours, and 24 hours after washing were observed through a phase-contrast microscope and a fluorescence microscope (FIG. 6A). […]

[4] = tested on: bile ducts formed from rCLiPs only; test: CLF incubation of rCLiP bile ducts only, without human hepatocytes (negative control, Example 2); type: in vitro ADME, rat; conditions: no human hepatocytes, 30 min incubation in HBSS containing CLF, observed immediately, 4 and 24 hours after washing, FIG. 6B
Protocol: After the incubation, the cells were washed with MSS not containing CLF, and the appearances of the cells immediately, 4 hours, and 24 hours after the washing were observed through a phase-contrast microscope and a fluorescence microscope (FIG. 6B).

## CC(CCC(=O)NC(CCCCNC(=S)Nc1ccc(-c2c3ccc(=O)cc-3oc3cc(O)ccc23)c(C(=O)O)c1)C(=O)O)C1CCC2C3C(O)CC4CC(O)CCC4(C)C3CC(O)C12C (stereo not shown) [CLF, cholyl-lysyl-fluorescein]
[1]
  CLF fluorescence in bile ducts (secretion to biliary canaliculi and movement to bile ducts): fluorescence was detected from the bile ducts
[2]
  CLF fluorescence in bile ducts: fluorescence was not, meanwhile, detected
[3]
  CLF fluorescence in bile ducts (secretion to biliary canaliculi and movement to bile ducts): fluorescence was detected from the bile ducts
[4]
  CLF fluorescence in bile ducts: fluorescence was not, meanwhile, detected
